What was measured:
healthy participants = assay: Safety and tolerability; type: in vivo, human
[1] = test system: activated partial thromboplastin time (aPTT); assay: Activated partial thromboplastin time; type: in vivo, human
prothrombin time = assay: Prothrombin time, ex vivo pharmacodynamics; type: in vivo, human; details: SAD and MAD panels; data not shown
[2] = test system: arterial and venous thrombosis; details: preclinical models of arterial and venous thrombosis; cited from earlier work
Multiple ascending dose = details: for Tmax: median (min-max)
[3] = MAD panel 12, 35 mg b.i.d. fasted, n = 6
[4] = MAD panel 13, 200 mg b.i.d. fasted, n = 6
[5] = MAD, all participants treated with milvexian, N = 42
[6] = all SAD and MAD dosing regimens

In the case of `C[C@@H]1CCC[C@H](n2cnc(-c3cc(Cl)ccc3-n3cc(Cl)nn3)cc2=O)c2cc(ccn2)-c2c(cnn2C(F)F)NC1=O` [milvexian], the “Abdominal discomfort (TEAE)” value (healthy participants; [3]) is reported as 0 n (%), the “Abdominal pain (TEAE)” value (healthy participants; [3]) is reported as 0 n (%) and the “Any TEAE” value (healthy participants; [3]) is reported as 2 (33.3) n (%). For the same molecule, the “Diarrhea (TEAE)” value (healthy participants; [3]) was 0 n (%), the “Dizziness (TEAE)” value (healthy participants; [3]) was 1 (16.7) n (%) and the “Headache (TEAE)” value (healthy participants; [3]) was 0 n (%). The “Nausea (TEAE)” value (healthy participants; [3]) was 0 n (%), the “Oropharyngeal pain (TEAE)” value (healthy participants; [3]) was 0 n (%) and the “Pain in extremity (TEAE)” value (healthy participants; [3]) was 0 n (%). For the same molecule, the “Abdominal discomfort (TEAE)” value (healthy participants; [4]) was 0 n (%), the “Abdominal pain (TEAE)” value (healthy participants; [4]) was 0 n (%) and the “Any TEAE” value (healthy participants; [4]) was 2 (33.3) n (%). For the same molecule, the “Diarrhea (TEAE)” value (healthy participants; [4]) was 0 n (%), the “Dizziness (TEAE)” value (healthy participants; [4]) was 1 (16.7) n (%) and the “Headache (TEAE)” value (healthy participants; [4]) was 0 n (%). The “Nausea (TEAE)” value (healthy participants; [4]) was 0 n (%), the “Oropharyngeal pain (TEAE)” value (healthy participants; [4]) was 1 (16.7) n (%) and the “Pain in extremity (TEAE)” value (healthy participants; [4]) was 0 n (%). For the same molecule, the “Diarrhea (TEAE)” value (healthy participants; MAD panels, milvexian) was 11.9%, the “Headache (TEAE)” value (healthy participants; MAD panels, milvexian) was 14.3% and the “participants reporting TEAEs” value (healthy participants; MAD panels, participants who received milvexian (21 participants)) was 50.0%. The “Abdominal discomfort (TEAE)” value (healthy participants; [5]) was 2 (4.8) n (%), the “Abdominal pain (TEAE)” value (healthy participants; [5]) was 2 (4.8) n (%) and the “Any TEAE” value (healthy participants; [5]) was 21 (50.0) n (%). The “Diarrhea (TEAE)” value (healthy participants; [5]) was 5 (11.9) n (%), the “Dizziness (TEAE)” value (healthy participants; [5]) was 3 (7.1) n (%) and the “Headache (TEAE)” value (healthy participants; [5]) was 6 (14.3) n (%). For the same molecule, the “Nausea (TEAE)” value (healthy participants; [5]) was 3 (7.1) n (%), the “Oropharyngeal pain (TEAE)” value (healthy participants; [5]) was 2 (4.8) n (%) and the “Pain in extremity (TEAE)” value (healthy participants; [5]) was 2 (4.8) n (%). For the same molecule, the ECG abnormalities (healthy participants; SAD and MAD) was “no clinically significant ECG abnormalities”, the “incidence of laboratory and vital sign abnormalities vs placebo” value (healthy participants; SAD and MAD) was “no relevant differences” and the “participants reporting TEAEs” value (healthy participants; SAD panels, fasted participants who received milvexian (three participants)) was 8.3%. The “deaths or other SAEs” value (healthy participants; SAD up to 500 mg, MAD up to 200 mg b.i.d. or 500 mg q.d.) was “No deaths or other SAEs occurred”, the “Headache (TEAE)” value (healthy participants; SAD, 300 mg, fasted) was 2 n and the “nausea (TEAE) after a high-fat breakfast” value (healthy participants; SAD, 500-mg group, fed (one participant)) was 16.7%. For the same molecule, the “clinically significant bleeding events” value (healthy participants; [6]) was “no clinically significant bleeding events”, the “severity of TEAEs” value (healthy participants; [6]) was “mild” and the “platelet count at next sampling time 2 days later” value (healthy participants; same participant, 35-mg b.i.d. group, within normal limits) was 1.84e+11 L⁻¹. The “maximal mean percent increase from baseline in aPTT” value (“maximal mean percent increase” below) ([1]; fasted SAD panel 4 mg) was 11.9%, the “maximal mean percent increase” value ([1]; fasted SAD panel 20 mg) was 36.7% and the “maximal mean percent increase” value ([1]; fasted SAD panel 60 mg) was 85.2%. The “maximal mean percent increase” value ([1]; fasted SAD panel 200 mg) was 147.1%, the “maximal mean percent increase” value ([1]; fasted SAD panel 300 mg) was 140.8% and the “maximal mean percent increase” value ([1]; fasted SAD panel 500 mg) was 188.3%. For the same molecule, the Prothrombin time (prothrombin time) was “not increased at any time”, the antithrombotic activity [2] was “antithrombotic activity while preserving homeostasis” and the “time to steady-state plasma concentration” value (Multiple ascending dose; MAD 5-mg q.d. panel, visual inspection of trough concentrations) was 1 dosing day. The “dose proportionality of increases in exposure” value (Multiple ascending dose; MAD day 14, 5-500 mg) was “greater than dose‐proportional”, the “time to steady-state plasma concentration” value (Multiple ascending dose; MAD, once-daily dosing) was no more than 3 dosing days and the AUC (Multiple ascending dose; human, in vivo, 5 mg, AUC(0‐T), MAD panel 7, 5 mg q.d. fasted, day 14, n = 5, geometric mean (geometric CV%)) was 146 ng·h/mL. It also gave an AUC (Multiple ascending dose; human, in vivo, 5 mg, AUC(TAU), MAD panel 7, 5 mg q.d. fasted, day 14, n = 5, geometric mean (geometric CV%)) of 146 ng·h/mL, a Cmax at 14 days (Multiple ascending dose; human, in vivo, 5 mg, Cmax, MAD panel 7, 5 mg q.d. fasted, day 14, n = 5, geometric mean (geometric CV%)) of 14.8 ng/mL and a Tmax (Multiple ascending dose; human, in vivo, 5 mg, MAD panel 7, 5 mg q.d. fasted, day 14, n = 5) of 2.03 h. It also gave an AUC (Multiple ascending dose; human, in vivo, 20 mg, AUC(0‐T), MAD panel 8, 20 mg q.d. fasted, day 14, n = 6, geometric mean (geometric CV%)) of 1660 ng·h/mL, an AUC (Multiple ascending dose; human, in vivo, 20 mg, AUC(TAU), MAD panel 8, 20 mg q.d. fasted, day 14, n = 6, geometric mean (geometric CV%)) of 1370 ng·h/mL and a Cmax at 14 days (Multiple ascending dose; human, in vivo, 20 mg, Cmax, MAD panel 8, 20 mg q.d. fasted, day 14, n = 6, geometric mean (geometric CV%)) of 171 ng/mL. For the same molecule, the Tmax (Multiple ascending dose; human, in vivo, 20 mg, MAD panel 8, 20 mg q.d. fasted, day 14, n = 6) was 2.5 h, the AUC (Multiple ascending dose; human, in vivo, 70 mg, AUC(TAU), MAD panel 9, 70 mg q.d. fasted, day 14, n = 5, geometric mean (geometric CV%)) was 4220 ng·h/mL and the Cmax at 14 days (Multiple ascending dose; human, in vivo, 70 mg, Cmax, MAD panel 9, 70 mg q.d. fasted, day 14, n = 5, geometric mean (geometric CV%)) was 434 ng/mL. The Tmax (Multiple ascending dose; human, in vivo, 70 mg, MAD panel 9, 70 mg q.d. fasted, day 14, n = 5) was 3 h, the AUC (Multiple ascending dose; human, in vivo, 200 mg, AUC(0‐T), MAD panel 10, 200 mg q.d. fasted, day 14, n = 6, geometric mean (geometric CV%)) was 18900 ng·h/mL and the AUC (Multiple ascending dose; human, in vivo, 200 mg, AUC(TAU), MAD panel 10, 200 mg q.d. fasted, day 14, n = 6, geometric mean (geometric CV%)) was 14600 ng·h/mL. The Cmax at 14 days (Multiple ascending dose; human, in vivo, 200 mg, Cmax, MAD panel 10, 200 mg q.d. fasted, day 14, n = 6, geometric mean (geometric CV%)) was 1510 ng/mL, the Tmax (Multiple ascending dose; human, in vivo, 200 mg, MAD panel 10, 200 mg q.d. fasted, day 14, n = 6) was 3.5 h and the AUC (Multiple ascending dose; human, in vivo, 500 mg, AUC(0‐T), MAD panel 11, 500 mg q.d. fed, day 14, n = 6, geometric mean (geometric CV%)) was 142000 ng·h/mL. It also gave an AUC (Multiple ascending dose; human, in vivo, 500 mg, AUC(TAU), MAD panel 11, 500 mg q.d. fed, day 14, n = 6, geometric mean (geometric CV%)) of 95100 ng·h/mL, a Cmax (Multiple ascending dose; human, in vivo, 500 mg, Cmax, MAD panel 11, 500 mg q.d. fed, day 14, n = 6, geometric mean (geometric CV%)) of 7600 ng/mL and a Tmax (Multiple ascending dose; human, in vivo, 500 mg, MAD panel 11, 500 mg q.d. fed, day 14, n = 6) of 4 h. It also gave a half-life (Multiple ascending dose; human, in vivo, mean T1/2, range across MAD panels, MAD) of 11.4 to 18.1 h.

Reference: publication PMC8841437 (Clinical and Translational Science, 2021)
